Measured values reported in patent US20220257620A1, “USE OF CERTAIN PHOSPHATIDYLCHOLINES CONTAINING LONG CHAIN POLYUNSATURATED FATTY ACIDS AS NEUROPROTECTIVE AGENTS” (KANNALIFE SCIENCES, INC., priority 2019, published 2022).

What was measured:
[1] = system: dissociated hippocampal cultures (primary neurons); test: Neuronal viability assay (CFDA), neuroprotection from 30 mM ethanol; assay type: cell-based, rat; conditions: Table 3, 5 hour test period, co-treatment with 30 mM ethanol; for EC50: read-out: CFDA (EC50 + SE)
Excerpt: Pre-coated poly-D-lysine coated plates will be used because of the adherence and survival of hippocampal neurons and glia on this matrix support.
Carboxyfluorescein (CFDA) was used a vital stain for all neuroprotection studies. With the use of the CytoFluor fluorimeter, the CFDA assay was employed to assess the viability of neurons. […] Neuronal specificity is obtained relative to astrocytes because the cleaved dye is extruded extracellularlly by glia with time, while dye in neurons remains intracellular.

[2] = system: dissociated hippocampal cultures; test: Cell death assay (propidium iodide), protection from 30 mM ethanol; assay type: cell-based, rat; conditions: Table 3, 5 hour test period, co-treatment with 30 mM ethanol; for IC50: read-out: Propidium Iodide (IC50 + SE)

Compound	CFDA (EC50 + SE) [1]	Propidium Iodide (IC50 + SE) [2]	EC50 [1]	IC50 [2]
PC 16:0-18:2 [reference compound]	Inactive	Inactive		
CCCCC/C=C\C/C=C\C/C=C\C/C=C\CCCC(=O)OC[C@H](COP(=O)([O-])OCC[N+](C)(C)C)OC(=O)CCC/C=C\C/C=C\C/C=C\C/C=C\CCCCC [PC 20:4-20:4, 1,2-diarachidonyl-phosphatidylcholine]			0.001 ± 8e-05 nM	0.0012 ± 0.00012 nM
CCCCC/C=C\C/C=C\CCCCCCCC(=O)OCC(COP(=O)([O-])OCC[N+](C)(C)C)OC(=O)CCCCCCC/C=C\C/C=C\CCCCC (stereo not shown) [PC 18:2-18:2, 1,2-dilinoleoyl-phosphatidylcholine]			0.067 ± 0.022 nM	0.044 ± 0.015 nM
CC/C=C\C/C=C\C/C=C\CCCCCCCC(=O)OC[C@H](COP(=O)([O-])OCC[N+](C)(C)C)OC(=O)CCCCCCC/C=C\C/C=C\C/C=C\CC [PC 18:3-18:3, 1,2-dilinolenoyl-phosphatidylcholine]			0.202 ± 0.022 nM	0.204 ± 0.088 nM
CC/C=C\C/C=C\C/C=C\C/C=C\C/C=C\C/C=C\CCC(=O)OC[C@H](COP(=O)([O-])OCC[N+](C)(C)C)OC(=O)CC/C=C\C/C=C\C/C=C\C/C=C\C/C=C\C/C=C\CC [PC 22:6-22:6]			0.283 ± 0.046 nM	0.21 ± 0.053 nM
